The text below walks through data of patent US10336788B2, “Inhibition of cardiac fibrosis in myocardial infarction” (Moerae Matrix, Inc., priority 2014, dated 2019).

No end group written: not given here.

For data set [1], the system named is C57BL/6 mice. Briefly: Conscious echocardiography of cardiac function after acute myocardial infarction (permanent LAD ligation). From the text:
Eight to ten week old C57BL/6 mice (25-30 g) were obtained from Charles River (Wilmington, Mass.) and maintained for at least 7 days with free access to standard rodent food and water. Myocardial infarction was induced by permanent ligation of the left anterior descending (LAD) coronary artery as described previously [Maejima Y, Kyoi S, Zhai P, Liu T, Li H, Ivessa A, et al. Mst1 inhibits autophagy by promoting the interaction between Beclin1 and Bcl-2. Nature Medicine. 2013; 19:1478-88; Qian L, Huang Y, Spencer C I, Foley A, Vedantham V, Liu L, et al. In vivo reprogramming of murine cardiac fibroblasts into induced cardiomyocytes. Nature. 2012; 485:593-8]. Post-surgery, mice were immediately treated with lidocaine (6 mg/kg IM) and atropine (0.04-0.10 mg/kg IM) upon surgical closure, followed by lidocaine and atropine every 2-4 hours for the first 24 hours to prevent arrhythmias. Post-anesthesia, mice were given 0.1 mg/kg buprenorphine every 12 hours for the first 48 hours. […] Cardiac function was measured by conscious echocardiography using a Vevo 2100 ultrasound biomicrscopy system (VisualSonics, Inc., Toronto, Canada) at baseline, 1, 7, and 14 days, as previously described [Oakley R H, Ren R, Cruz-Topete D, Bird G S, Myers P H, Boyle M C, et al. Essential role of stress hormone signaling in cardiomyocytes for the prevention of heart disease. Proc Natl Acad Scie USA. 2013; 110:17035-40; Willis M S, Homeister J W, Rosson G B, Annayev Y, Holley D, Holly S P, et al. Functional redundancy of SWI/SNF catalytic subunits in maintaining vascular endothelial cells in the adult heart. Circulation Res. 2012; 111:e111-22; Willis M S, Schisler J C, Li L, Rodriguez J E, Hilliard E G, Charles P C, et al. Cardiac muscle ring finger-1 increases susceptibility to heart failure in vivo. Circulation Res. 2009; 105:80-8].
Echocardiography was used to follow cardiac function and morphometry prior to the surgical induction of an acute myocardial infarction (AMI) induced by thoracotomy and ligation of the left anterior descending coronary artery in C57BL/6 mice. Cardiac function was then followed at 7 and 14 days post-AMI (FIG. 1A).

Data set [2] relates to C57BL/6 mice. The experiment in a line: Histological analysis of fibrosis (Masson's trichrome, Aperio) of hearts 14 days post-AMI. The class given is in vivo, mouse. On the procedure: Mice were euthanized by isoflurane and cervical dislocation at day 14, fixed in fresh 4% paraformaldehyde for 24 hours, paraffin embedded, processed, and stained with standard hematoxylin and eosin (H&E) and Masson's trichrome (MT). Starting at the ligation with fully faced tissue, 14-15 levels were cut on each block at 50 μm (one slide for H&E, one for MT, and 3 unstained; 50 μm skipped and then repeated). […] The area of fibrosis was analyzed in 3-4 blindly chosen hearts, each heart at 14-15 levels (point of ligation to apex), 3 sections at each level. Analysis of collagen was performed blinded to treatment on these 42-45 sections per heart. Slides were scanned using an Aperio Scanscope (Aperio Technologies, Vista, Calif.) and analyzed using Aperio Imagescope. The Algorithm Positive Pixel Count v9 was used to measure the Masson's trichrome staining of collagen (representing both fibrosis and collagen in extracellular matrix), hue value (0.66) and hue width (0.1) were used analyzed the tissue outlined using the pen tool. Each section was analyzed and exported. The N positive/N total value (representing the % collagen of the entire section) was used to determine a weighted average for each slide.
Hearts were obtained from AMI mice and histologically analyzed for fibrosis in Masson's trichrome stained sections in a systemic manner (FIG. 2A).

For the sequence YARAAARQARAKALARQLGVAA [MMI-0100], in the data set on C57BL/6 mice [1] (AMI mice treated with MMI-0100, compared to sham, vs. 40% without MMI-0100), the “LV dilation: LVID; d decreased” value was 29%. Also, the “LV dilation: LV Volume; d decreased” value in the data set on C57BL/6 mice [1] (AMI mice treated with MMI-0100, compared to sham, vs. 130% without MMI-0100) amounted to 88%. Further, the “cardiac function compared to untreated AMI mice” value in the data set with C57BL/6 mice [1] (AMI mice, 50 μg/kg/day intraperitoneally, first dose 30 minutes after LAD ligation, 1 and 2 weeks after AMI) is on record as “significantly greater function”. The “effect on cardiac function, MMI-0100 alone” value with C57BL/6 mice [1] (mice without AMI, daily MMI-0100 intraperitoneally for 14 days) is “did not have any effect”. Besides, the “histology at the site of infarction (myocyte sparing within scar)” value with C57BL/6 mice [2] (AMI mice treated with MMI-0100, AMI alone generally all fibrotic) is listed as “islands of viable myocytes”. The “fibrosis distant to the site of ischemia (histological sections)” value in the data set with C57BL/6 mice [2] (AMI mice treated with MMI-0100 vs AMI) is recorded as “not found to the same extent”. The “less fibrosis than untreated AMI mice” value in the data set with C57BL/6 mice [2] (AMI mice, 50 μg/kg/day from 30 minutes post-AMI, day 14) is given as 50%. The “fibrosis, area staining blue (Masson's trichrome collagen)” value in the data set with C57BL/6 mice [2] (AMI mice, 50 μg/kg/day from 30 minutes post-AMI, day 14, untreated AMI ~21%) was around 11%.
